Data: PubChem BioAssay (NCI)
Where “and” joins values, the source holds several entries; their conditions need not be identical. Equal values may be shown once.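 96-well plates; 48 h exposure; 5 concentrations. Endpoints by linear interpolation between flanking doses. Not reached: highest tested concentration assigned. Abbreviation: GI50, concentration required for 50% inhibition of growth. TGI: total growth inhibition.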

What was measured:
Test in all cases: NCI anticancer screen, dose series, 48 h
SNB-75 CNS = tested on: SNB-75 CNS
HOP-92 NSCLC = tested on: HOP-92 NSCLC
OVCAR-3 ovarian = tested on: OVCAR-3 ovarian
SR leukemia = tested on: SR leukemia
ACHN renal = tested on: ACHN renal
BT-549 breast = tested on: BT-549 breast
786-0 renal = tested on: 786-0 renal
MDA-MB-231 breast = tested on: MDA-MB-231 breast
HS 578T breast = tested on: HS 578T breast
MDA-MB-435 = tested on: MDA-MB-435

| SMILES | TGI (SNB-75 CNS) | TGI (HOP-92 NSCLC) | TGI (OVCAR-3 ovarian) | TGI (SR leukemia) | TGI (ACHN renal) | TGI (BT-549 breast) | TGI (786-0 renal) | TGI (MDA-MB-231 breast) | TGI (HS 578T breast) | TGI (MDA-MB-435) | GI50 (SNB-75 CNS) | GI50 (MDA-MB-231 breast) | GI50 (HS 578T breast) | GI50 (HOP-92 NSCLC) | GI50 (OVCAR-3 ovarian) | GI50 (MDA-MB-435) | GI50 (ACHN renal) | GI50 (BT-549 breast) | GI50 (SR leukemia) |
| --- | --- | --- | --- | --- | --- | --- | --- | --- | --- | --- | --- | --- | --- | --- | --- | --- | --- | --- | --- |
| COC1CCC(OS(C)(=O)=O)CO1 (centres undefined) | > 100 µM | > 100 µM | > 100 µM | > 100 µM | > 100 µM |  |  |  |  |  |  |  |  |  |  |  |  |  |  |
| CCCCC1Cc2cc(OC)ccc2-c2nc3cc(OC)ccc3n21 (centres undefined) (tested in a mixture with another compound) |  | 17.1 µM | 29.8 µM | 32.1 µM | 28.4 µM | 33.3 µM | 27.8 µM | 25.7 µM | 25.3 µM | 26.3 µM |  |  |  |  |  |  |  |  |  |
| N=C(N)C(N=Nc1ccccc1)C(=N)N (centres undefined) |  | 83.9 µM | > 100 µM |  | > 100 µM | > 100 µM | > 100 µM | 97.8 µM | > 100 µM | 42.7 µM |  |  |  |  |  |  |  |  |  |
| O=C1OC(c2ccccc2)=N/C1=C/c1cccs1 | > 100 µM | > 100 µM | > 100 µM | > 100 µM | > 100 µM |  |  |  | > 100 µM | > 100 µM |  |  |  |  |  |  |  |  |  |
| O=c1c2c([nH]c3nccn13)CCCC2 | > 10 µM |  | > 10 µM | > 10 µM | > 10 µM |  |  | > 10 µM | > 10 µM | > 10 µM |  |  |  |  |  |  |  |  |  |
| C[N+]1(C)C2CCC1CC(OC(=O)C(CO)c1ccccc1)C2 (centres undefined) | > 100 µM |  | > 100 µM | > 100 µM | > 100 µM | > 100 µM | > 100 µM | > 100 µM | > 100 µM | > 100 µM |  |  |  |  |  |  |  |  |  |
| CCN(CC)/C(=C\Cl)Nc1ccccn1 | > 100 µM | > 100 µM | > 100 µM |  | > 100 µM |  | > 100 µM |  |  |  |  |  |  |  |  |  |  |  |  |
| O=C1CCC(NC(=O)Cc2ccc(O)cc2)C(=O)N1 (centres undefined) | > 2500 µM | > 2500 µM | > 2500 µM |  | > 2500 µM |  |  |  |  |  |  |  |  |  |  |  |  |  |  |
| CN1CCN(CCCOc2ccc3ncnc(Nc4ccc(Oc5cccc(C(F)(F)F)c5)c(Cl)c4)c3c2)CC1 | 3.13 µM | 3.9 µM | 2.56 µM |  | 2.55 µM |  |  | 3.15 µM | 4.22 µM | 3.09 µM | 1.15 µM | 1.72 µM | 1.67 µM | 1.33 µM | 1.09 µM | 1.53 µM | 1.26 µM |  |  |
| O=C1CC(N2C(=O)/C(=C/C(Cl)=C\c3ccc([N+](=O)[O-])cc3)SC2=S)C(=O)N1c1ccc(Cl)cc1 (centres undefined) |  | 6.79 µM | 2.62 µM | 14.2 µM |  | 3.74 µM |  | 47.8 µM | > 100 µM | 3.39 µM |  | 3.75 µM | 1.8 µM | 2.58 µM | 0.721 µM | 1.65 µM |  | 1.75 µM | 0.544 µM |
| COc1nc(C#CCCCC#N)nc(OC)n1 | 75.7 µM |  | 28 µM | > 100 µM | 21.8 µM | 33.1 µM | 41.7 µM | 29.3 µM | > 100 µM | 27.7 µM |  |  |  |  |  |  |  |  |  |
| Cc1c(N)nc([C@H](CC(N)=O)NC[C@H](N)C(N)=O)nc1C(=O)N[C@H](C(=O)N[C@H](C)[C@@H](O)[C@H](C)C(=O)N[C@H](C(=O)NCCc1nc(-c2nc(C(=O)NCCC[S+](C)C)cs2)cs1)[C@@H](C)O)C(OC1OC(CO)C(O)C(O)C1OC1OC(CO)C(O)C(OC(N)=O)C1O)c1cnc[nH]1 (some centres undefined) | 6.42 µM and 13.4 µM and 18.8 µM |  | 29 µM [middle of 4 runs] |  | 0.343 µM and 0.34 µM and 1.03 µM | 23.8 µM and 25 µM and > 100 µM |  | 25 µM and > 100 µM |  | 25 µM and > 100 µM | 5.98 µM and 1.06 µM | 23.3 µM and 78.8 µM |  |  |  | 25.3 µM | 0.0135 µM and 0.0134 µM | 6.48 µM and 7.49 µM |  |
| O=C(NN1C(=O)/C(=C/c2ccc(Cl)cc2)N=C1c1ccccc1)c1c(Cl)c(Cl)c(Cl)c(Cl)c1-c1nc2ccccc2[nH]1 | 52.6 µM | 37.3 µM | > 100 µM | 27.1 µM | 75.3 µM | 32.8 µM | 55.9 µM |  | 95.3 µM | 11.6 µM |  |  |  |  |  |  |  |  |  |
| CN(C)CCNc1c([N+](=O)[O-])cc2c3c(cccc13)C(=O)N(CCN(C)C)C2=O | 4.18 µM | 2.36 µM | 5.44 µM |  |  |  |  |  |  |  |  |  |  |  |  |  |  |  |  |
